Values of other authors in patent US20140066504A1, “ANALOGS AND PRODRUGS OF BUMETANIDE; COMPOSITIONS AND METHODS OF USE” (priority 2012, published 2014).

Experiments:
[1] = test system: glial cell
[2] = test system: adults with refractory epilepsy
[3] = test system: rat models of anxiety
[4] = test system: rat hippocampal slices; details: afterdischarge, high-K+, zero-magnesium, 4-AP, bicuculline, zero-calcium models
[5] = target: T1, NKCC1 (Homo sapiens, UniProt P55011); details: for affinity for NKCC1 over KCC2: selectivity
T1 sequence (P55011 1-1212): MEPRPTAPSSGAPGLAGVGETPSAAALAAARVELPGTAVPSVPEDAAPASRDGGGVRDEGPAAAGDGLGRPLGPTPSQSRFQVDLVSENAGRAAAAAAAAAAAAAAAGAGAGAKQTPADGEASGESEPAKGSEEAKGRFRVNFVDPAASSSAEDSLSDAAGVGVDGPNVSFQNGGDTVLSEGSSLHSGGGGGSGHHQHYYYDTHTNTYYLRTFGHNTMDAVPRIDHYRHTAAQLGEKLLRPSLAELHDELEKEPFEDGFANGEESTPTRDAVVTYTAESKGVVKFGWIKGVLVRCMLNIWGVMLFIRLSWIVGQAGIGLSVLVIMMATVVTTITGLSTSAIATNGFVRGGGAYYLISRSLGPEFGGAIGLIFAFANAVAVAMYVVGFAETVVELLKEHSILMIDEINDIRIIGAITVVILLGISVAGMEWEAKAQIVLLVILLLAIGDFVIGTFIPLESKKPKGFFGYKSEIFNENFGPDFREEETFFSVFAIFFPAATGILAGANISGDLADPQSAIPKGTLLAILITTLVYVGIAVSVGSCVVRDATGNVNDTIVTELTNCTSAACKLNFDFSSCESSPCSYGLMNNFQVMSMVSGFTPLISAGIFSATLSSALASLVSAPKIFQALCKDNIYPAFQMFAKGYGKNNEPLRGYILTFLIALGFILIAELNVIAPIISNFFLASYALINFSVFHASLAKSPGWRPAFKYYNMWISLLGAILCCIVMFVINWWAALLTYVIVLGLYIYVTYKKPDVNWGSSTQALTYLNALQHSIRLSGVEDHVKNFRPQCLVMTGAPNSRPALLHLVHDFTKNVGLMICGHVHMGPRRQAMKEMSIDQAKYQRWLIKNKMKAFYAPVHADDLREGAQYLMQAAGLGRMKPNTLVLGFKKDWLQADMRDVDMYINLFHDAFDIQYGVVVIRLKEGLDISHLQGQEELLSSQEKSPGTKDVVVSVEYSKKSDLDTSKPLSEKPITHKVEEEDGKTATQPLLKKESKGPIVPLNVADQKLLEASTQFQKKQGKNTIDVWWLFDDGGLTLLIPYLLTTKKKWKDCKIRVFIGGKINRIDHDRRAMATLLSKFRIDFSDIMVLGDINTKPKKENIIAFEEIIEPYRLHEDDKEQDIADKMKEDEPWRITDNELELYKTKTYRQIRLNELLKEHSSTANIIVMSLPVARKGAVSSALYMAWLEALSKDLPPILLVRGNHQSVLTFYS

[6] = test system: audiogenic seizure-prone rats; details: audiogenic seizure-prone animals
[7] = test system: neocortex; details: intravenously administered, human patients
[8] = test system: primate cortex; details: relative to furosemide
[9] = test system: rats

SMILES | effect on activity-driven glial cell swelling [1] | effect on seizure frequency [2] | effect on conditioned anxiety [3] | effect on epileptiform activity [4] | affinity for NKCC1 over KCC2 [5] | effect on sound-triggered seizures [6] | effect on interictal spiking and stimulation-evoked afterdischarges [7] | blocking epileptiform activity (focal bicuculline or 4-AP) and stimulation-evoked afterdischarges [8] | NKCC1 antagonist potency and specificity relative to furosemide [5] | effect on kainic acid status [9]
NS(=O)(=O)c1cc(C(=O)O)c(NCc2ccco2)cc1Cl [furosemide] | block activity-driven glial cell swelling | significantly reduced seizure frequency | significantly reduce conditioned anxiety | block epileptiform activity | significantly greater affinity for NKCC1 over KCC2 | prevented sound-triggered seizures | blocked spontaneously occurring interictal spiking and stimulation-evoked afterdischarges |  |  | 
CCCCNc1cc(C(=O)O)cc(S(N)(=O)=O)c1Oc1ccccc1 [bumetanide] |  |  | significantly reduce conditioned anxiety |  | significantly greater affinity for NKCC1 over KCC2 | more potent than furosemide |  | more potent than furosemide | more potent and specific antagonist than furosemide | more potent than furosemide
